In ChEMBL document CHEMBL3124912, “Combination of amino acid/dipeptide with nitric oxide donating oleanolic acid derivatives as PepT1 targeting antitumor prodrugs” (J Med Chem, 2014):
Converted amounts (≈) assume the structure as drawn. The source made the active and inactive calls. The calls are words filed in the database; no cut-off is given here.

Experiments:
PepT1 [1] = test: Effective permeability in Sprague-Dawley rat single-pass intestinal perfusion model assessed as PepT1-mediated drug transport at 0.1 mM administered in MES buffer at pH 6 via PVC tubing after 20 to 120 mins by HPLC analysis in presence of Gly-Sar; format: ADME, organism-based; details: other: intestinal perfusion via PVC tubing, pH 6, with Gly-Sar (concentration not stated), read-out: Peff
PepT1 [2] = test: Effective permeability in Sprague-Dawley rat single-pass intestinal perfusion model assessed as PepT1-mediated drug transport at 0.1 mM administered in MES buffer at pH 6 via PVC tubing after 20 to 120 mins by HPLC analysis; format: ADME, organism-based; details: other: intestinal perfusion via PVC tubing, read-out: Peff
PepT1 [3] = test: Effective permeability in Sprague-Dawley rat single-pass intestinal perfusion model assessed as PepT1-mediated drug transport at 0.1 mM administered in HEPES buffer at pH 7.4 via PVC tubing after 20 to 120 mins by HPLC analysis; format: ADME, organism-based; details: other: intestinal perfusion via PVC tubing, read-out: Peff
[4] = Chemical stability in HEPES buffer assessed as compound remaining at 37 degC up to 2 hrs by HPLC analysis; format: physicochemical; details: read-out: Stability
[5] = Chemical stability in MES buffer assessed as compound remaining at 37 degC up to 2 hrs by HPLC analysis; format: physicochemical; details: read-out: Stability
[6] = Aqueous equilibrium solubility of the compound after 24 hrs by HPLC analysis; format: physicochemical; details: water (aqueous)
[7] = Induction of nitric oxide release in PBS at 100 uM at pH 7.4 after 24 hrs by Griess method in presence of rat serum; details: pH 7.4, 24 h
[8] = Induction of nitric oxide release in PBS at 100 uM at pH 7.4 after 24 hrs by Griess method; details: buffer, pH 7.4, 24 h
[9] = Cytotoxicity against human LO2 cells assessed as cell survival at 50 uM after 48 hrs by CCK-8 assay relative to control; format: cell-based, L02; details: read-out: Survival
HepG2 = test: Cytotoxicity against human HepG2 cells after 48 hrs by CCK-8 assay; format: functional, cell-based; details: HepG2, 48 h
MCF7 = test: Cytotoxicity against human MCF7 cells after 48 hrs by CCK-8 assay; format: functional, cell-based; details: MCF7, 48 h
A549 [10] = test: Cytotoxicity against human A549 cells after 48 hrs by CCK-8 assay; format: functional, cell-based; details: A549, 48 h
HCT-116 = test: Cytotoxicity against human HCT116 cells after 48 hrs by CCK-8 assay; format: functional, cell-based; details: HCT-116, 48 h
A549 [11] = test: Ratio of cisplatin IC50 to compound IC50 for human A549 cells; format: functional
[12] = Cytotoxicity against human LO2 cells at 0.02 to 10 uM after 48 hrs by CCK-8 assay; format: cell-based; details: l02, 48 h
L02 = test: Induction of human LO2 cell growth at 0.02 to 10 uM after 48 hrs by CCK-8 assay; format: functional, cell-based

Row | SMILES | Papp at 100 µM (PepT1 [1]) | Papp at 100 µM (PepT1 [2]) | Papp at 100 µM (PepT1 [3]) | remaining at 2 h [4] | remaining at 2 h [5] | solubility thermodynamic at 24 h [6] | Activity [7] | Activity [8] | viability at 48 h, 50 µM [9] | IC50 (HepG2) | IC50 (MCF7) | IC50 (A549 [10]) | IC50 (HCT-116) | Ratio IC50 (A549 [11]) | Activity [12] | Activity (L02)
1 | CC(C)[C@H](N)C(=O)N[C@H](C(=O)OCCOC(=O)[C@]12CCC(C)(C)C[C@H]1C1=CC[C@@H]3[C@@]4(C)CC[C@H](OC(=O)CO[N+](=O)[O-])C(C)(C)[C@@H]4CC[C@@]3(C)[C@]1(C)CC2)C(C)C.Cl | 16.3 ×10⁻⁶ cm/s | 46 ×10⁻⁶ cm/s | 23.4 ×10⁻⁶ cm/s | 98.2% | 100% | 22.3 µg/mL | Active | 9.9% | 60% | 2.8 µM | 15 µM | 2.4 µM | 15.5 µM | 7 | Non-toxic | Active
2 | CC[C@H](C)[C@H](N)C(=O)OCCOC(=O)[C@]12CCC(C)(C)C[C@H]1C1=CC[C@@H]3[C@@]4(C)CC[C@H](OC(=O)CO[N+](=O)[O-])C(C)(C)[C@@H]4CC[C@@]3(C)[C@]1(C)CC2 | – | – | – | – | – | – | – | – | – | 16.3 µM | 74 µM | 17.7 µM | > 150 µM | – | – | –
3 | CC(C)[C@H](N)C(=O)OCCOC(=O)[C@]12CCC(C)(C)C[C@H]1C1=CC[C@@H]3[C@@]4(C)CC[C@H](O)C(C)(C)[C@@H]4CC[C@@]3(C)[C@]1(C)CC2.Cl | – | – | 41.5 ×10⁻⁶ cm/s | – | – | 25.2 µg/mL | – | – | – | 96.7 µM | > 150 µM | 68.1 µM | > 150 µM | – | – | –
4 | CC(C)[C@H](N)C(=O)OCCOC(=O)[C@]12CCC(C)(C)C[C@H]1C1=CC[C@@H]3[C@@]4(C)CC[C@H](OC(=O)CO[N+](=O)[O-])C(C)(C)[C@@H]4CC[C@@]3(C)[C@]1(C)CC2.Cl | 25.3 ×10⁻⁶ cm/s | 33.2 ×10⁻⁶ cm/s | 20.3 ×10⁻⁶ cm/s | 98.5% | 100% | 18.6 µg/mL | Active | 6.7% | 60% | 10.7 µM | 25.5 µM | 7.5 µM | 24.9 µM | 2 | Non-toxic | Active
5 | C[C@H](N)C(=O)OCCOC(=O)[C@]12CCC(C)(C)C[C@H]1C1=CC[C@@H]3[C@@]4(C)CC[C@H](OC(=O)CO[N+](=O)[O-])C(C)(C)[C@@H]4CC[C@@]3(C)[C@]1(C)CC2 | – | – | – | – | – | – | – | – | – | 23.2 µM | 48 µM | 28.1 µM | 32.8 µM | – | – | –
6 | CC1(C)CC[C@]2(C(=O)O)CC[C@]3(C)C(=CC[C@@H]4[C@@]5(C)CC[C@H](O)C(C)(C)[C@@H]5CC[C@]43C)[C@@H]2C1 [OLEANOLIC_ACID] | – | 31.6 ×10⁻⁶ cm/s | 31.7 ×10⁻⁶ cm/s | – | – | 0.012 µg/mL (≈ 0.0263 µM) | – | – | – | 51.4 µM | > 150 µM | 81.4 µM | > 150 µM | – | Non-toxic | Active
7 | CC(C)[C@H](NC(=O)[C@H](C)N)C(=O)OCCOC(=O)[C@]12CCC(C)(C)C[C@H]1C1=CC[C@@H]3[C@@]4(C)CC[C@H](OC(=O)CO[N+](=O)[O-])C(C)(C)[C@@H]4CC[C@@]3(C)[C@]1(C)CC2 | – | – | – | – | – | – | – | – | – | 22.1 µM | 83.2 µM | 9.6 µM | 24.7 µM | – | – | –
8 | CC(COC(=O)[C@]12CCC(C)(C)C[C@H]1C1=CC[C@@H]3[C@@]4(C)CC[C@H](O)C(C)(C)[C@@H]4CC[C@@]3(C)[C@]1(C)CC2)OC(=O)[C@@H](NC(=O)[C@@H](N)C(C)C)C(C)C (stereo partly drawn) | – | – | – | – | – | – | – | – | – | 73.1 µM | > 150 µM | 64.3 µM | 133 µM | – | – | –
